# In patent US20230028441A1, “NOVEL HETEROARYL-TRIAZOLE COMPOUNDS AS PESTICIDES” (Bayer Aktiengesellschaft, priority 2019, published 2023):
# Assays:
# Assay type in all cases: in vivo
# [1] = system: larvae of the banded cucumber beetle (Diabrotica balteata); assay: Diabrotica balteata spray test; settings: 168 h, 100 g/ha (=32 μg/well), after 7 days, wheat seeds, read-out: efficacy (seedlings grown up)
# Description: (§1) Solvent: 78.0 parts by weight of acetone • • 1.5 parts by weight of dimethylformamide
# (§2) Emulsifier: alkylarylpolyglycol ether
# (§3) To produce a suitable preparation of active compound, 1 part by weight of active compound is mixed with the stated amount of solvent, and the concentrate is diluted with water, containing an emulsifier concentration of 1000 ppm, to the desired concentration. Further test concentrations are prepared by dilution with emulsifier containing water.
# Soaked wheat seeds (Triticum aestivum) are placed in a multiple well plate filled with agar and some water and are incubated for 1 day to germinate (5 seeds per well). The germinated wheat seeds are sprayed with a test solution containing the desired concentration of the active ingredient. Afterwards each unit is infected with 10-20 larvae of the banded cucumber beetle (Diabrotica balteata).
# After 7 days efficacy in % is determined. 100% means all the seedlings have grown up like in the untreated, uninfected control; 0% means none of the seedlings have grown.
# [2] = system: adult unfed cat fleas (Ctenocephalides felis); assay: Ctenocephalides felis oral test; settings: 48 h, 100 ppm in cattle blood, after 2 days
# Description: (§4) Solvent: dimethyl sulfoxide
# To produce a suitable preparation of active compound, 10 mg of active compound are dissolved in 0.5 mL solvent, and the concentrate is diluted with cattle blood to the desired concentration.
# Approximately 20 adult unfed cat fleas (Ctenocephalides felis) are placed in flea chambers. The blood chamber, sealed with parafilm on the bottom, are filled with cattle blood supplied with compound solution and placed on the gauze covered top of the flea chamber, so that the fleas are able to suck the blood. The blood chamber is heated to 37° C. whereas the flea chamber is kept at room temperature.
# After 2 days mortality in % is determined. 100% means all the fleas have been killed; 0% means none of the fleas have been killed.
# [3] = system: adult engorged female ticks (Rhipicephalus microplus); assay: Rhipicephalus (Boophilus) microplus injection test; settings: 168 h, egg deposition after 7 days, read-out: efficacy (infertile eggs); for pest or weed control at 0.004 mg: 4 μg/animal; for pest or weed control at 0.02 mg: 20 μg/animal
# Description: as §4
# To produce a suitable preparation of active compound, 10 mg of active compound are dissolved in 0.5 mL solvent, and the concentrate is diluted with solvent to the desired concentration.
# Five adult engorged female ticks (Rhipicephalus microplus) are injected with 1 μL compound solution into the abdomen. The ticks are transferred into replica plates and incubated in a climate chamber.
# After 7 days egg deposition of fertile eggs is monitored. Eggs where fertility is not visible are stored in a climate chamber till hatching after about 42 days. An efficacy of 100% means all eggs are infertile; 0% means all eggs are fertile.
# [4] = system: cattle tick larvae (Rhipicephalus microplus), strain Parkhurst, resistant against synthetic pyrethroids; assay: Rhipicephalus (Boophilus) microplus in-vitro contact test, larval cattle tick; settings: 5 μg/cm^2 (=500 g/ha), after 48 hours, read-out: efficacy (larvae dead or moribund)
# Description: 9 mg compound is solved in 1 mL acetone and diluted with acetone to the desired concentration. 250 μL of the test solution is filled in 25 mL glass test tubes and homogeneously distributed on the inner walls by rotation and tilting on a shaking device (2 h at 30 rpm). With a compound concentration of 900 ppm, an inner surface of 44.7 cm^2 and a homogeneous distribution, a dose of 5 μg/cm^2 is achieved.
# After the solvent has evaporated, each test tube is filled with 20-50 cattle tick larvae (Rhipicephalus microplus), closed with a perforated lid and incubated in a horizontal position at 85% relative humidity and 27° C. in an incubator. After 48 hours efficacy is determined. The larvae are patted on the ground of the tubes and negative geotactic behaviour is recorded.
# An efficacy of 100% means all larvae are dead or moribund; 0% means no larvae are dead or moribund.
# [5] = system: larvae of the southern green stink bug (Nezara viridula); assay: Nezara viridula spray test; settings: in Hordeum vulgare, 96 h
# Description: as §1, §2, §3
# Barley plants (Hordeum vulgare) infested with larvae of the southern green stink bug (Nezara viridula) are sprayed with a test solution containing the desired concentration of the active ingredient.
# After 4 days mortality in % is determined. 100% means all the stink bugs have been killed; 0% means none of the stink bugs have been killed.
# [6] = system: fall armyworm larvae (Spodoptera frugiperda); assay: Spodoptera frugiperda spray test (maize leaf sections); settings: 168 h
# Description: Solvent: 78.0 parts by weight acetone • 1.5 parts by weight dimethylformamide
# as §2
# To produce a suitable preparation of active compound, 1 part by weight of active compound is mixed with the stated amount of solvents and is diluted with water, containing an emulsifier concentration of 1000 ppm, to the desired concentration. Further test concentrations are prepared by dilution with emulsifier containing water.
# Maize (Zea mays) leaf sections are sprayed with a preparation of the active ingredient of the desired concentration. Once dry, the leaf sections are infested with fall armyworm larvae (Spodoptera frugiperda).
# After 7 days mortality in % is determined. 100% means all caterpillars have been killed and 0% means none of the caterpillars have been killed.
Structure (SMILES),"pest or weed control at 32 µg/disc, 100 g/ha [1] [%]",mortality at 100 ppm [2] [%],pest or weed control at 0.004 mg [3] [%],pest or weed control at 5 µg/cm2 [4] [%],mortality at 100 g/ha [5] [%],pest or weed control at 0.02 mg [3] [%],mortality at 500 g/ha [6] [%],mortality at 100 g/ha [6] [%]
"CC(NC(=O)c1cc(C(F)(F)F)cc(C(F)(F)F)c1)c1nc(Cc2ccccc2)nn1-c1ncccn1 (racemic) [I-082, N-[1-(5-benzyl-2-pyrimidin-2-yl-1,2,4-triazol-3-yl)ethyl]-3,5-bis(trifluoromethyl)benzamide]",80,100,100,,,,,
"CC(NC(=O)c1cc(Br)cc(Br)c1)c1nc(NC(=O)OC(C)(C)C)nn1-c1ccc(C(=O)N2CCOCC2)cn1 (racemic) [I-106, tert-butyl N-[5-[1-[(3,5-dibromobenzoyl)amino]ethyl]-1-[5-(morpholine-4-carbonyl)-2-pyridyl]-1,2,4-triazol-3-yl]carbamate]",,,,80,,,,
CC(NC(=O)c1cc(Cl)cc(S(C)(=O)=O)c1)c1nc(N)nn1-c1ncccn1 (stereo not shown) [I-008],,100,100,,,,,
CC(NC(=O)c1cc(Cl)cc(S(C)(=O)=O)c1)c1nc(NC(=O)C2CC2(F)F)nn1-c1ncccn1 (stereo not shown) [I-021],,100,80,,90,,,
CC(NC(=O)c1cc(Cl)cc(Cl)c1)c1nc(CS(C)(=O)=O)nn1-c1ccc(Cl)cn1 (stereo not shown) [I-028],,100,100,,,100,,
CC(NC(=O)c1cncc(C(F)(F)F)c1)c1nc(CS(C)(=O)=O)nn1-c1ccc(Cl)cn1 (stereo not shown) [I-030],,100,100,,,100,,
CC(NC(=O)c1cc(Cl)nc(Cl)c1)c1nc(-c2cnccn2)nn1-c1ccc(Cl)cn1 (stereo not shown) [I-035],,100,,100,,100,,
CC(NC(=O)c1cc(Cl)nc(C(F)(F)F)c1)c1nc(-c2cnccn2)nn1-c1ccc(Cl)cn1 (stereo not shown) [I-037],,90,100,,,100,,
CC(NC(=O)c1cncc(C(F)(F)F)c1)c1nc(-c2cnccn2)nn1-c1ccc(Cl)cn1 (stereo not shown) [I-038],,100,100,,,100,,
CC(NC(=O)c1cc(Cl)cc(S(C)(=O)=O)c1)c1nc(-c2cnccn2)nn1-c1ccc(Cl)cn1 (stereo not shown) [I-039],,100,100,,,80,,
CC(NC(=O)c1cc(Cl)cc(C(F)(F)F)c1)c1nc(-c2cnccn2)nn1-c1ccc(Cl)cn1 (stereo not shown) [I-040],,100,100,100,,100,,
CC(NC(=O)c1cncc(C(F)(F)F)c1)c1nc(-c2ccc(Cl)nc2)nn1-c1ncccn1 (stereo not shown) [I-042],,90,,,,100,,
CC(NC(=O)c1cc(Cl)nc(C(F)(F)F)c1)c1nc(-c2cnccn2)nn1-c1ncccn1 (stereo not shown) [I-044],,100,100,,,100,,
CC(NC(=O)c1cc(Cl)cc(Cl)c1)c1nc(-c2cnccn2)nn1-c1ncccn1 (stereo not shown) [I-046],,100,100,,,100,100,
CC(NC(=O)c1cc(Cl)cc(C(F)(F)F)c1)c1nc(-c2cnccn2)nn1-c1ncccn1 (stereo not shown) [I-047],,100,100,,,100,83,
CC(NC(=O)c1cc(Br)cc(C(F)(F)F)c1)c1nc(-c2cnccn2)nn1-c1ncccn1 (stereo not shown) [I-048],,100,100,,,,83,
CC(NC(=O)c1cc(Cl)nc(Cl)c1)c1nc(-c2cnccn2)nn1-c1ncccn1 (stereo not shown) [I-049],,100,80,,,100,,
CC(NC(=O)c1cncc(C(F)(F)F)c1)c1nc(-c2cnccn2)nn1-c1ncccn1 (stereo not shown) [I-050],,100,100,,,100,,
CC(NC(=O)c1cc(Cl)nc(C(F)(F)F)c1)c1nc(-c2ncccn2)nn1-c1ncccn1 (stereo not shown) [I-056],,100,80,,,100,,
CC(NC(=O)c1cc(Cl)cc(S(C)(=O)=O)c1)c1nc(SC(F)(C(F)(F)F)C(F)(F)F)nn1-c1ccc(Cl)cn1 (stereo not shown) [I-069],,,100,100,,100,,
CC(NC(=O)c1cc(Cl)cc(C(F)(F)F)c1)c1nc(SC(F)(C(F)(F)F)C(F)(F)F)nn1-c1ccc(Cl)cn1 (stereo not shown) [I-070],,,100,100,,100,,
CC(NC(=O)c1cc(Cl)cc(C(F)(F)F)c1)c1nc(Cc2ccccc2)nn1-c1ncccn1 (stereo not shown) [I-083],100,90,,,,,,
CC(NC(=O)c1cc(C(F)(F)F)cc(C(F)(F)F)c1)c1nc(NC(=O)OC(C)(C)C)nn1-c1ccc(C(=O)N2CCOCC2)cn1 (stereo not shown) [I-113],100,,,90,,,,
CC(NC(=O)c1cc(OC(F)(F)F)cc(C2CC2)c1)c1nc(N)nn1-c1ccc(C#N)cn1 (stereo not shown) [I-122],100,,,100,,,,
CC(=O)Nc1nc(C(C)NC(=O)c2cc(OC(F)(F)F)cc(C3CC3)c2)n(-c2ccc(C#N)cn2)n1 (stereo not shown) [I-124],100,,,100,,,,100
CC(NC(=O)c1cc(C(F)(F)F)cc(C(F)(F)F)c1)c1nc(N2CCOCC2)nn1-c1ccc(C#N)cn1 (stereo not shown) [I-158],100,,,100,,,,100
CC(NC(=O)c1cc(OC(F)(F)F)cc(C2CC2)c1)c1nc(N2CCOCC2)nn1-c1ccc(C#N)cn1 (stereo not shown) [I-161],100,,,100,,,,
